Source: PubChem BioAssay AID2202554 (NIEHS Division of Translational Toxicology (DTT))
Results filed as inconclusive are left out. The source made the active and inactive calls. How the calls were made is not given here.

These compounds were tested on S. typhimurium/E. coli reverse mutation, colony counts (assay: Bacterial reverse mutation test (aka Ames test) summary data).
Procedure, shortened: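 S. typhimurium his⁻ strains (TA97–TA1538) and E. coli WP2 uvrA pKM101 trp⁻, dosed over a range with or without rat, hamster or mouse liver S9. Preincubated 20 min at 37° C (or plate incorporation), plated in agar, incubated usually two days. Revertant colonies counted against negative controls.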
`OCC=CCO` was tested, and the outcome was “active; positive”. `CCC(CO)(CO)[N+](=O)[O-]` was tested, and the outcome was “inactive; negative”. `O=[N+]([O-])c1ccc(Cl)c(Cl)c1Cl` was tested, and the outcome was “active; positive”. For `ClC(Cl)=C(c1ccc(Cl)cc1)c1ccc(Cl)cc1`, the outcome was “inactive; negative”. With `Oc1c(Cl)c(Cl)cc(Cl)c1Cl` the outcome was “inactive; negative”. With `NCCNCCO` the outcome was “active; weakly positive”. With `COC(=O)C1CCC(C(=O)OC)CC1` (stereo unspecified) the outcome was “active; positive”. For `CC1(C)S[C@@H]2[C@H](NC(=O)COc3ccccc3)C(=O)N2[C@H]1C(=O)O`, the outcome was “inactive; negative”. `O=[N+]([O-])c1ccc(NCCO)c(OCCO)c1` was tested, and the outcome was “active; positive”. In the case of `Cc1cnc[nH]1`, the outcome is reported as “inactive; negative”. With `Clc1ccc(C(Cl)(Cl)Cl)c(Cl)c1` the outcome was “active; positive”. `Nc1cccc(S(=O)(=O)O)c1` was tested, and the outcome was “inactive; negative”. `COc1ccc2c(c1OC)C(=O)O[C@@H]2[C@H]1c2cc3c(cc2CCN1C)OCO3` was tested, and the outcome was “inactive; negative”. With `CC(=O)OCc1ccco1` the outcome was “active; positive”. For `COc1c2occc2cc2ccc(=O)oc12`, the outcome was “active; positive”. With `CNc1ccc2nc3ccc(=[N+](C)C)cc-3sc2c1` the outcome was “active; positive”. `N#CCc1ccccc1` was tested, and the outcome was “inactive; negative”. With `CCCCC(CC)COC(=O)c1ccccc1C(=O)O` (stereo unspecified) the outcome was “inactive; negative”. For `Nc1nccs1`, the outcome was “active; positive”. In the case of `O=C(O)c1ccccc1Cl`, the outcome is reported as “inactive; negative”. `OCc1ccccc1` was tested, and the outcome was “inactive; negative”. For `O=c1[nH]c(=O)n(Cl)c(=O)n1Cl`, the outcome was “inactive; negative”. In the case of `CN(C)c1cccc(O)c1`, the outcome is reported as “active; positive”. `OCCO` was tested, and the outcome was “inactive; negative”. With `NC1CCC(CC2CCC(N)CC2)CC1` (stereo unspecified) the outcome was “inactive; negative”. In the case of `Nc1cc(Cl)cc(Cl)c1`, the outcome is reported as “inactive; negative”. `O=c1cc(O)nc[nH]1` was tested, and the outcome was “inactive; negative”. `Nc1nc(N)c2nc(-c3ccccc3)c(N)nc2n1` was tested, and the outcome was “inactive; negative”. With `O=C1CCO1` the outcome was “active; positive”. In the case of `CCc1cc(C(N)=S)ccn1`, the outcome is reported as “inactive; negative”. For `CN(Cc1cnc2nc(N)nc(N)c2n1)c1c(Cl)cc(C(=O)N[C@@H](CCC(=O)O)C(=O)O)cc1Cl`, the outcome was “active; weakly positive”. With `CNCCS(=O)(=O)O` the outcome was “inactive; negative”. In the case of `C=C[C@H]1CN2CC[C@H]1C[C@@H]2[C@@H](O)c1ccnc2ccc(OC)cc12`, the outcome is reported as “inactive; negative”. For `CC[C@H]1CN2CCc3cc(OC)c(OC)cc3[C@@H]2C[C@@H]1C[C@H]1NCCc2cc(OC)c(OC)cc21`, the outcome was “inactive; negative”. With `C=COC(C)=O` the outcome was “inactive; negative”. With `COc1cc(-c2ccc(N=C=O)c(OC)c2)ccc1N=C=O` the outcome was “active; positive”. `ClCC(Br)CBr` (stereo unspecified) was tested, and the outcome was “active; positive”. `NC(N)=NC(=O)c1nc(Cl)c(N)nc1N` was tested, and the outcome was “active; positive”. `CCCC(=O)OCC` was tested, and the outcome was “inactive; negative”. For `C`, the outcome was “inactive; negative”. `CCCCCCc1ccc(O)cc1O` was tested, and the outcome was “inactive; negative”. `C=CCCCCCC` was tested, and the outcome was “inactive; negative”. With `Nc1ccc(Cc2ccc(N)c(Cc3ccc(N)cc3)c2)cc1` the outcome was “active; positive”. In the case of `Nc1ccc(S(=O)(=O)Nc2nccs2)cc1`, the outcome is reported as “inactive; negative”. With `O=C1CCC(=O)O1` the outcome was “inactive; negative”. `CC(=O)Nc1ccc(C(=O)O)cc1` was tested, and the outcome was “inactive; negative”. With `O=C1NS(=O)(=O)c2ccccc21` the outcome was “inactive; negative”. With `C=CCc1ccc(OC)cc1` the outcome was “inactive; negative”. `O=C1NC(=O)C(O)(O)C(=O)N1` was tested, and the outcome was “inactive; negative”. `CC(C)(c1ccc(OCC2CO2)cc1)c1ccc(OCC2CO2)cc1` (stereo unspecified) was tested, and the outcome was “active; positive”. With `C=CC(=O)NCO` the outcome was “inactive; negative”. With `CCCCC(CC)CN` (stereo unspecified) the outcome was “inactive; negative”. In the case of `Cc1cc(N=Nc2ccccc2C)ccc1N`, the outcome is reported as “active; positive”. With `O=CC(=O)c1ccccc1` the outcome was “active; positive”. In the case of `CCn1cc[n+](C)c1`, the outcome is reported as “inactive; negative”. `O=[N+]([O-])c1cc([As](=O)(O)O)ccc1O` was tested, and the outcome was “inactive; negative”. `Oc1ccc(Cl)cc1` was tested, and the outcome was “inactive; negative”. In the case of `COc1ccc2nc(N)sc2c1`, the outcome is reported as “active; positive”. With `CC(O)CN(C)C` (stereo unspecified) the outcome was “inactive; negative”. `CN(C(=O)CN(CCO)CC(=O)N(C)C(C)(C)Cc1ccccc1)C(C)(C)Cc1ccccc1` was tested, and the outcome was “inactive; negative”. `Nc1ccccc1C(=O)OC1CCCCC1` was tested, and the outcome was “inactive; negative”. In the case of `CN(C)N=O`, the outcome is reported as “active; positive”. For `CC(C)CCC[C@@H](C)[C@H]1CC[C@H]2[C@@H]3CC=C4C[C@@H](OC(=O)Cc5ccc(N(CCCl)CCCl)cc5)CC[C@]4(C)[C@H]3CC[C@]12C`, the outcome was “inactive; negative”. `C1COCCN1` was tested, and the outcome was “inactive; negative”. `Cc1cc(C)c(N=Nc2c(O)c(S(=O)(=O)O)cc3cc(S(=O)(=O)O)ccc23)cc1C` was tested, and the outcome was “inactive; negative”. `Nc1cccc2c(N)cccc12` was tested, and the outcome was “active; positive”. With `COP(=O)(O)O` the outcome was “inactive; negative”. With `CCC1CO1` (stereo unspecified) the outcome was “active; positive”. For `Cc1ccc2nc(-c3ccc(N)cc3)sc2c1`, the outcome was “active; positive”. In the case of `c1ccc(Nc2ccccc2)cc1`, the outcome is reported as “inactive; negative”. `C=CCNC(N)=O` was tested, and the outcome was “active; positive”. `CC/C=C\C/C=C\C/C=C\CCCCCCCC(=O)OCC` was tested, and the outcome was “active; weakly positive”. In the case of `CC1CNCC(C)O1` (stereo unspecified), the outcome is reported as “active; positive”. For `CCCCOP(=O)(OCCCC)Oc1ccccc1`, the outcome was “inactive; negative”. With `FCC1CO1` (stereo unspecified) the outcome was “active; positive”. In the case of `CCOc1ccc(NC(C)=O)cc1`, the outcome is reported as “inactive; negative”. With `CN(C)P(=O)(N(C)C)N(C)C` the outcome was “inactive; negative”. For `Nc1n[nH]c(N)n1`, the outcome was “inactive; negative”. `Nc1ccc(-c2ccccc2)cc1` was tested, and the outcome was “active; positive”. In the case of `CC(CN1c2ccccc2Sc2ccccc21)N(C)C` (stereo unspecified), the outcome is reported as “inactive; negative”. In the case of `Cc1ncc[nH]1`, the outcome is reported as “inactive; negative”. In the case of `C1CCCCC1`, the outcome is reported as “inactive; negative”. In the case of `CCCCCCCCCCCCCCCCCCN`, the outcome is reported as “inactive; negative”. `COc1ccc(CN(CCN(C)C)c2ncccn2)cc1` was tested, and the outcome was “inactive; negative”. For `CCCCCCCCCC(=O)O`, the outcome was “inactive; negative”. In the case of `COP(=O)(OC)O/C(=C\Cl)c1cc(Cl)c(Cl)cc1Cl`, the outcome is reported as “inactive; negative”. In the case of `Nc1nc2ncc(CNc3ccc(C(=O)N[C@@H](CCC(=O)O)C(=O)O)cc3)nc2c(=O)[nH]1`, the outcome is reported as “inactive; negative”. `O=C1NC2NC(=O)NC2N1` (stereo unspecified) was tested, and the outcome was “inactive; negative”. With `N#CCCl` the outcome was “inactive; negative”. For `NCCS(=O)(=O)O`, the outcome was “inactive; negative”. With `c1ccc(N(c2ccccc2)c2ccccc2)cc1` the outcome was “inactive; negative”. For `COc1cc(CNC(=O)CCCC/C=C/C(C)C)ccc1O`, the outcome was “inactive; negative”. `Cc1occc(=O)c1O` was tested, and the outcome was “active; weakly positive”. With `CC(C)C#N` the outcome was “inactive; negative”. With `c1ccc2ncccc2c1` the outcome was “active; positive”. With `NCP(=O)(O)O` the outcome was “inactive; negative”. `O=C1OC(=O)c2c(Br)c(Br)c(Br)c(Br)c21` was tested, and the outcome was “inactive; negative”. `CCn1cc(C(=O)O)c(=O)c2ccc(C)nc21` was tested, and the outcome was “active; weakly positive”. In the case of `O=[N+]([O-])c1ccc(Cl)cc1Cl`, the outcome is reported as “active; positive”. For `CC(=O)OC1CC(C)OC(C)O1` (stereo unspecified), the outcome was “active; positive”. For `O=C1Nc2ccc(S(=O)(=O)O)cc2C1=O`, the outcome was “active; positive”. `CCc1cccc(N)c1` was tested, and the outcome was “inactive; negative”. `NC(=O)NO` was tested, and the outcome was “inactive; negative”. `COP(=O)(OC)C(O)C(Cl)(Cl)Cl` (stereo unspecified) was tested, and the outcome was “active; weakly positive”. In the case of `Cc1ccnc2c1NC(=O)c1cccnc1N2C1CC1`, the outcome is reported as “inactive; negative”. In the case of `O=[N+]([O-])c1cc([N+](=O)[O-])c2ccc(S(=O)(=O)O)cc2c1O`, the outcome is reported as “active; positive”. In the case of `c1ccsc1`, the outcome is reported as “inactive; negative”. With `C[CH2][Pb]([CH2]C)([CH2]C)[CH2]C` the outcome was “inactive; negative”. In the case of `O=C(O)CNCP(=O)(O)O`, the outcome is reported as “inactive; negative”. In the case of `C1CN1c1nc(N2CC2)nc(N2CC2)n1`, the outcome is reported as “active; positive”. `CCc1ccccc1O` was tested, and the outcome was “inactive; negative”. For `Cl/C=C/Cl`, the outcome was “inactive; negative”. `COC(=O)Nc1cccc(OC(=O)Nc2cccc(C)c2)c1` was tested, and the outcome was “active; positive”. `CC(=O)OC/C=C(\C)CCC=C(C)C` was tested, and the outcome was “inactive; negative”. For `NCCc1ccc(O)c(O)c1`, the outcome was “active; weakly positive”. `CCCCNCC` was tested, and the outcome was “inactive; negative”. With `Nc1ccc(Cl)c(N)c1` the outcome was “active; positive”. With `CCCCCCOCC1CO1` (stereo unspecified) the outcome was “active; positive”. With `O=C(Cc1ccccc1)OCc1ccccc1` the outcome was “inactive; negative”. In the case of `COc1ccc(C=O)cc1`, the outcome is reported as “inactive; negative”. For `CC(C)[C@@H]1CC[C@@H](C)C[C@H]1O`, the outcome was “inactive; negative”. With `NC=O` the outcome was “inactive; negative”. `COc1c2ccoc2cc2oc(=O)ccc12` was tested, and the outcome was “active; positive”. `CC(C)(c1ccc(O)cc1)c1ccc(O)cc1` was tested, and the outcome was “inactive; negative”. For `CC=C1CC2C=CC1C2` (stereo unspecified), the outcome was “inactive; negative”. For `C=C(C)C(=O)OCCCC`, the outcome was “inactive; negative”. With `Oc1ccc(/C=C/c2cc(O)cc(O)c2)cc1` the outcome was “inactive; negative”. For `O=NN1CCOCC1`, the outcome was “active; positive”. `O=C(O)CCCCC1CCSS1` (stereo unspecified) was tested, and the outcome was “inactive; negative”. `Cc1c(N)cccc1[N+](=O)[O-]` was tested, and the outcome was “active; positive”. For `NCCNCCNCCNCCN`, the outcome was “active; positive”. In the case of `Nc1ccc(N)c(Cl)c1`, the outcome is reported as “active; positive”. `CCN(CC)C(=O)c1cccc(C)c1` was tested, and the outcome was “inactive; negative”. In the case of `O=C(NCO)NCO`, the outcome is reported as “active; positive”. For `Cc1cccnc1`, the outcome was “inactive; negative”. For `Cc1cc(=O)[nH]c(=S)[nH]1`, the outcome was “inactive; negative”.
